From patent US7388005B2, “Substituted 2-pyrimidinyl-6,7,8,9-tetrahydropyrimido[1,2-a]pyrimidin-4-one and 7-pyrimidinyl-2,3-dihydroimidazo [1,2-a]pyrimidin-5(1H)one derivatives for neurodegenerative disorders” (Sanofi-Aventis, priority 2001, dated 2008)

What was measured:
GSK3β = GSK3β (Homo sapiens, UniProt P49841); assay: Inhibitory activity against GSK3β (TPK1), 33P-ATP phosphorylation of prephosphorylated GS1 peptide; assay type: biochemical
Method: Two different protocols can be used.
In a first protocol: 7.5 μM of prephosphorylated GS1 peptide and 10 μM ATP (containing 300,000 cpm of 33P-ATP) were incubated in 25 mM Tris-HCl, pH 7.5, 0.6 mM DTT, 6 mM MgCl2, 0.6 mM EGTA, 0.05 mg/ml BSA buffer for 1 hour at room temperature in the presence of GSK3β (total reaction volume: 100 microliters).
In a second protocol: 4.1 μM of prephosphorylated GS1 peptide and 42 μM ATP (containing 260,000 cpm 33P-ATP) were incubated in 80 mM Mes-NaOH, pH 6.5, 1 mM Mg acetate, 0.5 mM EGTA, 5 mM 2-mercaptoethanol, 0.02% Tween 20, 10% glycerol buffer for 2 hours at room temperature in the presence of GSK3β. Inhibitors were solubilised in DMSO (final solvent concentration in the reaction medium, 1%).
(§1) The reaction was stopped with 100 microliters of a solution made of 25 g polyphosphoric acid (85% P2O5), 126 ml 85% H3PO4, H2O to 500 ml and then diluted to 1:100 before use. An aliquot of the reaction mixture was then transferred to Whatman P81 cation exchange filters and rinsed with the solution described above. Incorporated 33P radioactivity was determined by liquid scintillation spectrometry.
The phosphorylated GS-1 peptide had the following sequence: NH2-[…](P)EDEE-COOH.
The GSK3β inhibitory activity of the compounds of the present invention are expressed in IC50, and as an illustration the range of IC50's of the compounds in table 1 is between 2 nanomolar to 2 micromolar concentrations, of the compounds in table 2 is between 30 nanomolar to 2 micromolar concentrations and of the compounds in table 3 is between 1 nanomolar to 2 micromolar concentrations.

cdk5/p25 = cdk5/p25 (Homo sapiens, UniProt Q00535); assay: Inhibitory activity against cdk5/p25 (TPK2), 33P-ATP phosphorylation of Histone H1; assay type: biochemical
Sequence of cdk5/p25 (Q00535 whole entry, species assumed): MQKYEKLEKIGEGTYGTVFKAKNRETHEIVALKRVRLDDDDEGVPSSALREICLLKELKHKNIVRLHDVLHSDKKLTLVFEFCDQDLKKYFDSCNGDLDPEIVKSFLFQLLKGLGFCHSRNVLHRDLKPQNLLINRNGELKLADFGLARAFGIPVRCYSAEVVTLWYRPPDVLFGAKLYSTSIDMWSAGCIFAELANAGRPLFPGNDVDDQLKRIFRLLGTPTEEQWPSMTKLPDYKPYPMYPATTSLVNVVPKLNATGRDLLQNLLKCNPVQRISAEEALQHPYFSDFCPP
Sequence of cdk5/p25 (Q15078 99-307 partner limits assumed, species assumed): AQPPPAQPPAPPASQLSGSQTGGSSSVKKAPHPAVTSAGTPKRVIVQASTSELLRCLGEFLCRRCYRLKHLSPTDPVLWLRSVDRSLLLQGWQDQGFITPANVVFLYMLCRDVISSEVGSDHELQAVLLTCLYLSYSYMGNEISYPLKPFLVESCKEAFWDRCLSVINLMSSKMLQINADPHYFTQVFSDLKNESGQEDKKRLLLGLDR
Method: The following protocol may be used:
0.4 mg/ml Histone H1 and 10 μM ATP (containing 300,000 cpm of ^33P-ATP) were incubated in 50 mM Hepes, pH 7.2, 1 mM DTT, 1 mM MgCl2, 1 mM EGTA, 0.02% Tween 20 buffer for 1 hour at room temperature in the presence of cdk5/p25 (total reaction volume: 100 microliters).
Inhibitors were solubilised in DMSO (final solvent concentration in the reaction medium, 1%).
as §1, with “solution” for “solution made”, “(diluted” for “and then diluted”, “use).” for “use.”, “^33P” for “33P”
The cdk5/p25 inhibitory activity of the compounds of the present invention are expressed as IC50 values. Typically, 3-fold serial dilutions of the inhibitor over at least a 1000-fold concentration range are used.

Sequence of GSK3β (P49841 whole entry, species assumed): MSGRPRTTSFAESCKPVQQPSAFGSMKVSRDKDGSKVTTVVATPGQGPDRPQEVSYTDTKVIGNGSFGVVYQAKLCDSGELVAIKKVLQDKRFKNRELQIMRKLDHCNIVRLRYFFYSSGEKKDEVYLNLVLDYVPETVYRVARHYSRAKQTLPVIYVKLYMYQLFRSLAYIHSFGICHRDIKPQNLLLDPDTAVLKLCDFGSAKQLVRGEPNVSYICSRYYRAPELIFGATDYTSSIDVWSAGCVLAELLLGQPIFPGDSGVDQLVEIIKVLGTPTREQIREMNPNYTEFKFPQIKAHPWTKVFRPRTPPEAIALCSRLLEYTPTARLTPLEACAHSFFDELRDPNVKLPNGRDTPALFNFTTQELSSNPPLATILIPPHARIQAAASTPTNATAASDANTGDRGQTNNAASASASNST

| Structure (SMILES) | IC50 (GSK3β) [µM] | IC50 (cdk5/p25) [µM] |
| --- | --- | --- |
| COc1cc(F)ccc1C(O)CN1CC(C)(C)Cn2c1nc(-c1ccncn1)cc2=O (racemic) [Table 1 No. 69, 9-[2-(4-Fluoro-2-methoxy-phenyl)-2-hydroxy-ethyl]-7,7-dimethyl-2-(pyrimidin-4-yl)-6,7,8,9-tetrahydro-pyrimido[1,2-a]pyrimidin-4-one] | 0.004 | > 1 |
| CC1(C)CCn2c(nc(-c3ccncn3)cc2=O)N1C[C@@H](O)c1ccccc1 [Table 3 No. 11, 9-[2(S)-Hydroxy-2-phenyl-ethyl]-8,8-dimethyl-2-(pyrimidin-4-yl)-6,7,8,9-tetrahydro-pyrimido[1,2-a]pyrimidin-4-one] | 0.004 | 1.18 |
| Cc1c(-c2ccncn2)nc2n(c1=O)CCCN2CC(=O)c1ccccc1 [Table 1 No. 23, 3-Methyl-9-(2-oxo-2-phenyl-ethyl)-2-(pyrimidin-4-yl)-6,7,8,9-tetrahydro-pyrimido[1,2-a]pyrimidin-4-one] | 0.032 | 0.754 |
| COc1cc(F)ccc1CCN1CCCn2c1nc(-c1ccncn1)cc2=O [Table 1 No. 91, 9-[2-(4-Fluoro-2-methoxy-phenyl)-ethyl]-2-(pyrimidin-4-yl)-6,7,8,9-tetrahydro-pyrimido[1,2-a]pyrimidin-4-one] | 0.0035 | > 1 |

Now from value to compound:

| IC50 (GSK3β) [µM] | IC50 (cdk5/p25) [µM] | Structure (SMILES) |
| --- | --- | --- |
| 0.002 | 0.49 | O=c1cc(-c2ccncn2)nc2n1CCCN2C[C@@H](O)c1ccccc1 [Table 1 No. 9, 9-(2(S)-Hydroxy-2-phenyl-ethyl)-2-(pyrimidin-4-yl)-6,7,8,9-tetrahydro-pyrimido[1,2-a]pyrimidin-4-one] |
| 0.005 | > 1 | COc1ccccc1CCN1CC(C)(C)Cn2c1nc(-c1ccncn1)cc2=O [Table 1 No. 47, 9-[2-(2-Methoxy-phenyl)-ethyl]-7,7-dimethyl-2-(pyrimidin-4-yl)-6,7,8,9-tetrahydro-pyrimido[1,2-a]pyrimidin-4-one] |
| 0.012 | 0.833 | CC1CCn2c(nc(-c3ccncn3)cc2=O)N1C[C@@H](O)c1ccccc1 (stereo partly drawn) [Table 3 No. 7, 9-[2(S)-Hydroxy-2-phenyl-ethyl]-8-methyl-2-(pyrimidin-4-yl)-6,7,8,9-tetrahydro-pyrimido[1,2-a]pyrimidin-4-one] |
| 0.008 | 0.377 | CC1(C)CN(C[C@@H](O)c2ccccc2)c2nc(-c3ccncn3)cc(=O)n2C1 [Table 1 No. 19, 9-(2(S)-Hydroxy-2-phenyl-ethyl)-7,7-dimethyl-2-(pyrimidin-4-yl)-6,7,8,9-tetrahydro-pyrimido[1,2-a]pyrimidin-4-one] |
| 0.002 | > 1 | CC1(C)CCn2c(nc(-c3ccncn3)cc2=O)N1C[C@@H](O)c1ccc(Cl)cc1 [Table 3 No. 35, 9-[2-(4-Chloro-phenyl)-2(S)-hydroxy-ethyl]-8,8-dimethyl-2-(pyrimidin-4-yl)-6,7,8,9-tetrahydro-pyrimido[1,2-a]pyrimidin-4-one] |
| > 0.1 | 0.833 | O=c1c(Cl)c(-c2ccncn2)nc2n1CCCN2C[C@@H](O)c1ccccc1 [Table 1 No. 24, 3-Chloro-9-(2(S)-hydroxy-2-phenyl-ethyl)-2-(pyrimidin-4-yl)-6,7,8,9-tetrahydro-pyrimido[1,2-a]pyrimidin-4-one] |
